Measured values reported in patent US20250353891A1 (MEDIMMUNE LIMITED, priority 2022, published 2025).
Where two headings read alike, the source gives them in different places. Starred links: 1 amine or outer side, 2 acyl side, 3 side chain; linkers in the order of their positions; H or OH if unused. Non-standard residues stand in square brackets, D forms with d. Residues, ends and D or L forms follow the SMILES beside them. Groups on a side chain read outwards from the residue. *: point of attachment. C20 diacid = O=C(O)CCCCCCCCCCCCCCCCCCC(=O)*; Dip = N[C@H](C(=O)O)C(c1ccccc1)c1ccccc1; γGlu = O=C(O)[C@H](CCC(=O)[*:2])N[*:1]; Stearoyl = CCCCCCCCCCCCCCCCCC(=O)*; Palmitoyl = CCCCCCCCCCCCCCCC(=O)*; αMeF = C[C@](N)(Cc1ccccc1)C(=O)O; PEG4 = NCCOCCOCCOCCOCCC(=O)O; PEG2 = NCCOCCOCCC(=O)O; AEEA = NCCOCCOCC(=O)O; Aib = CC(C)(N)C(=O)O

Assays:
[1] = Proteolytic resistance to FasSSIF/Pancreatin; assay type: in vitro ADME; conditions: simulated intestinal fluid
Description: A fresh suspension of FasSSIF/P (Fasted-State Simulated Intestinal Fluid+USP Pancreatin®) was prepared according to that described by Galia, Nicolaides, Hörter, Löbenberg, Reppas and Dressman: Pharm. Res. 15 (1998) 698-705, and USP XL requirements. The resulting preparation was used immediately without storage.
Peptide for evaluation (1.0 mg) was dissolved in pre-warmed FasSSIF without Pancreatin® (200 μL). To this fresh FasSSIF/Pancreatin® (100 μL) was added to initiate potential proteolysis. Following momentary vortexing of the reaction tube the mixture was incubated at 37° C. in a thermostatic water bath for the duration of the experiment. 25 μL aliquot of the co-incubated peptide-enzyme mixture was periodically withdrawn (t=0, 5, 10 15 and 30 min) and quenched immediately by addition to a solution of 10% TFA in 1:1 water/acetonitrile (75 μL) to arrest proteolytic activity. Quenched samples were centrifuged (7800 RPM, 3 mins) to pellet solids and 10 μL aliquots of the supernatant solution were analyzed using analytical RP-HPLC as follows: Analytical RP-HPLC method: Agilent Polaris C8-A column (4.6×100 mm, 3 micron) eluted with a linear binary gradient of 10-90% MeCN (0.1% TFA v/v) in water (0.1% TFA v/v) over either 10 or 15 mins at 1.5 mL min^−1 at 40° C. with detection by UV absorption at 210 nm. Manual integration (AUC) allowed estimation of remaining intact peptide over the time course of the experiment.

wildtype (WT) mice = assay: Glucose change in wildtype mice; assay type: in vivo, mouse; conditions: s.c., 120 min vs 0 min
Description: (§1) GLP-1R knockout (KO) and wildtype (WT) mice at 8-14 weeks of age were singly housed on standard chow diet (Envigo, 2918) and automatic water. They acclimated for a minimum of ˜1-2 weeks, and mice were sorted into groups (n=4-8/group) based on body weight. On day of study, mice were fasted briefly for 2 hrs prior to study start. In some studies, mice were pre-treated with octreotide (BaChem, 10 mg/kg) at 30 minutes prior to peptide injection. Glucose was measured via glucometer at various timepoints including-30 min (prior to octreotide when used in studies), 0 min (before peptide dose), 30, 60, 120, 180, 240, and 360 minutes. Since these studies are acute in nature, mice were re-used for multiple studies (no more than 3) and always allowed at least a minimum wash-out period of 1 week.

[2] = Mouse acute food intake study; assay type: in vivo; conditions: male C57Bl/6 mice, s.c., dose 10 nmol/kg, cumulative food intake at 24 hr vs vehicle
Method in brief: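 Single-housed male C57Bl/6 mice (8-9 weeks on arrival), chow-fed, acclimated and sham-dosed ≥2 times, were fasted 6-8 h, then given vehicle or peptide subcutaneously at 5 mL/kg 1-2 h before lights out. Food intake was recorded automatically over 48 h and analysed as cumulative intake.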

[3] = molecular target: human glucagon receptor (hGCGR) (Homo sapiens, UniProt P47871); assay: cAMP production (HTRF) in CHO cells expressing hGCGR; assay type: cell-based; set-up: expressed in transfected cells; conditions: geometric mean, read-out: hGluc-R EC50
Method in brief: (§2)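 Read-out: HTRF cAMP (anti-cAMP cryptate donor, cAMP-d2 acceptor in conjugate/lysis buffer), converted to % Delta F and fitted by 4-parameter logistic for EC50. Cell densities were 1×10^5 cells/mL (hGLP-1R) or 2×10^5 cells/mL (hGCGR). Stimulation lasted 30 min at room temperature.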

[4] = molecular target: human GLP-1 receptor (hGLP-1R) (Homo sapiens, UniProt P43220); assay: cAMP production (HTRF) in CHO cells expressing hGLP-1R; assay type: cell-based; set-up: expressed in transfected cells; conditions: for EC50: geometric mean, read-out: hGLP-1R EC50; for % Relative Potency Ratio: % GLP-1R activity relative to GLP-1 / % GlucR activity relative to glucagon
Method in brief: as §2

[5] = tested on: GLP-1R knockout (KO) mice; assay: Glucose change in GLP-1R knockout mice; assay type: in vivo, mouse; conditions: GLP-1R KO mice, s.c., 120 min vs 0 min
Description: as §1, with “They” for “GLP-1R knockout (KO) and wildtype (WT) mice at 8-14 weeks of age were singly housed on standard chow diet (Envigo, 2918) and automatic water. They”

[6] = Proteolytic resistance to FasSSGF containing porcine pancreatic pepsin; assay type: in vitro ADME; conditions: pig, simulated gastric fluid
Description: Stimulated Gastric Fluid (FasSSGF) Containing Porcine Pancreatic Pepsin Lyophilized porcine pancreatic pepsin (Sigma: P7012) was reconstituted to 0.5 mg/mL (˜2500 units/mL) in freshly prepared FasSSGF (Biorelevant media) to give the enzyme stock solution. Peptide stock solution was prepared to a concentration of 250 μM (˜1.0 mg/mL) in FasSSGF. 200 μL ([…], ˜250 units) of pepsin stock solution was added to 200 μL of peptide solution (1.0 mg/mL, ˜100 μg of peptide, ˜25 nmoles) and the mixture was co-incubated in a temperature-regulated incubator at 37° C. for the duration of the experiment. 30 μL aliquot of the peptide-enzyme mixture was periodically withdrawn (t=0, 5, 10, 15, and 30 min) and quenched immediately by addition of 80 μL of 0.1M ammonium bicarbonate solution in water/acetonitrile (4:1, pH 8) to arrest proteolytic activity. 30 μL aliquot was analyzed by analytical RP-HPLC. Analytical RP-HPLC method: Agilent Polaris C8-A column (4.6×100 mm, 3 micron) eluted with a linear binary gradient of 10-90% MeCN (0.1% TFA v/v) in water (0.1% TFA v/v) over either 10 or 15 mins at 1.5 mL min-1 at 40° C. with detection by UV absorption at 210 nm. Manual integration (AUC) allowed estimation of remaining intact peptide over the time course of the experiment.

[7] = 3 nmol/kg, no somatostatin pretreatment
[8] = Table 6, peptides modified at position 17, cAMP in CHO hGCGR cells
[9] = Table 6, peptides modified at position 17, cAMP in CHO hGLP-1R cells
[10] = 10 nmol/kg, somatostatin pretreatment (octreotide) 30 min prior to cpd
[11] = 30 nmol/kg, somatostatin pretreatment (octreotide) 30 min prior to cpd

human GLP-1 receptor (hGLP-1R), sequence (P43220 24-463): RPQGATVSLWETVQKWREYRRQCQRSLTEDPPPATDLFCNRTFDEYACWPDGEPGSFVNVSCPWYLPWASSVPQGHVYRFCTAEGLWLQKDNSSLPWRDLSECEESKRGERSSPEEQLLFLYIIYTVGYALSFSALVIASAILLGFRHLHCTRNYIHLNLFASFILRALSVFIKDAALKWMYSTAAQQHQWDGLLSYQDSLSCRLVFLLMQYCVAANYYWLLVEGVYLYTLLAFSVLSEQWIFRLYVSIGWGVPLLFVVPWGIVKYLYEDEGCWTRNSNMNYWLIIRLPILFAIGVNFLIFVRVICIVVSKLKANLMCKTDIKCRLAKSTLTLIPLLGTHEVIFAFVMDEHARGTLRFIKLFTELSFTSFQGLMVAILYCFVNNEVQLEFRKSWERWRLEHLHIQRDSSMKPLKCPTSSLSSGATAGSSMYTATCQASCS
human glucagon receptor (hGCGR), sequence (P47871 26-477): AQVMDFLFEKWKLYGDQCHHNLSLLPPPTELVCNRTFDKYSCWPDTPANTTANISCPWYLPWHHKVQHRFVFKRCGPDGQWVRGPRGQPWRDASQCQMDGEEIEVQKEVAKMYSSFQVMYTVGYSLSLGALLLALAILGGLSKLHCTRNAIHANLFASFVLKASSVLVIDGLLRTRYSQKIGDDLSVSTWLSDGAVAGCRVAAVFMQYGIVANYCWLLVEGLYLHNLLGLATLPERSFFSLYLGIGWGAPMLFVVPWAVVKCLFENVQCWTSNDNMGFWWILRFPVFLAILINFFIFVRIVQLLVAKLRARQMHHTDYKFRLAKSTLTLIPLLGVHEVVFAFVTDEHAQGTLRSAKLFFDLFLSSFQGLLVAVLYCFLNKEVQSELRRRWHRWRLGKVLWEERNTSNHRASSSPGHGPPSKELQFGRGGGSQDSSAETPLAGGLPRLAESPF

Row | remaining at 5 min, 3.3 mg/mL [1] | remaining at 10 min, 3.3 mg/mL [1] | remaining at 0.25 h, 3.3 mg/mL [1] | remaining at 0.5 h, 3.3 mg/mL [1] | EC50 [3, 8] | EC50 [4, 9] | % Relative Potency Ratio ([4]; Table 6) | remaining at 0.25 h, 125 µM [6] | remaining at 0.5 h, 125 µM [6] | EC50 ([3]; cAMP, CHO cells, 0.1% BSA) | % Relative Potency Ratio [4] | EC50 ([4]; cAMP, CHO cells, 0.1% BSA) | SMILES | WT % glucose change 120 min (wildtype (WT) mice; [7]) | 24 hr % Vehicle Food Intake [2] | GLP-1R KO % glucose change 120 min [5, 7] | WT % glucose change 120 min (wildtype (WT) mice; [10]) | WT % glucose change 120 min (wildtype (WT) mice; [11]) | GLP-1R KO % glucose change 120 min [5, 10] | GLP-1R KO % glucose change 120 min [5, 11]
1 | 83% | 33% | 29% | 19% | 5.52 pM | 1.89 pM | 5.8 |  |  |  |  |  | CCCCCCCCCCCCCCCC(=O)N[C@@H](CCC(=O)N[C@@H](CCC(=O)NCCOCCOCCOCCOCCC(=O)NCCCC[C@H](NC(=O)[C@H](CO)NC(=O)[C@H](CC(=O)O)NC(=O)[C@H](CC(C)C)NC(=O)[C@@H](NC(=O)[C@H](CCCCN)NC(=O)[C@H](CO)NC(=O)[C@@H](NC(=O)[C@H](CC(=O)O)NC(=O)[C@H](CO)NC(=O)[C@@H](NC(=O)[C@](C)(Cc1ccccc1)NC(=O)[C@H](CO)NC(=O)CNC(=O)[C@H](CCC(N)=O)NC(=O)C(C)(C)NC(=O)[C@@H](N)Cc1c[nH]cn1)[C@@H](C)O)C(C)C)C(c1ccccc1)c1ccccc1)C(=O)N[C@@H](CCCNC(=N)N)C(=O)N[C@@H](C)C(=O)N[C@@H](CCC(N)=O)C(=O)N[C@@H](CC(=O)O)C(=O)N[C@@](C)(Cc1ccccc1)C(=O)N[C@H](C(=O)N[C@@H](CCC(=O)O)C(=O)NC(C)(C)C(=O)N[C@@H](CC(C)C)C(=O)N[C@@H](CCC(=O)O)C(=O)N[C@@H](C)C(=O)NCC(=O)NCC(N)=O)C(C)C)C(=O)O)C(=O)O [Peptide 43] (H-H[Aib]QGS[αMeF]TSDVSK[Dip]LDSK([PEG4-γGlu-γGlu-Palmitoyl])RAQD[αMeF]VE[Aib]LEAGG-NH2; N-terminus assumed) | −56.0% | 53.2% | 63.9% |  |  |  | 
2 | 97% | 96% | 95% | 90% | 1.73 pM | 1.74 pM | 2.0 |  |  |  |  |  | CCCCCCCCCCCCCCCCCC(=O)N[C@@H](CCC(=O)N[C@@H](CCC(=O)NCCOCCOCCC(=O)NCCOCCOCCC(=O)NCCCC[C@H](NC(=O)[C@H](CO)NC(=O)[C@H](CC(=O)O)NC(=O)[C@H](CC(C)C)NC(=O)[C@@H](NC(=O)[C@H](CCCCN)NC(=O)[C@H](CO)NC(=O)[C@@H](NC(=O)[C@H](CC(=O)O)NC(=O)[C@H](CO)NC(=O)[C@@H](NC(=O)[C@](C)(Cc1ccccc1)NC(=O)[C@H](CO)NC(=O)CNC(=O)[C@H](CCC(N)=O)NC(=O)[C@H](CO)NC(=O)[C@@H](N)Cc1c[nH]cn1)[C@@H](C)O)C(C)C)C(c1ccccc1)c1ccccc1)C(=O)N[C@@H](C)C(=O)N[C@@H](C)C(=O)N[C@@H](CCC(N)=O)C(=O)N[C@@H](CC(=O)O)C(=O)N[C@@](C)(Cc1ccccc1)C(=O)N[C@H](C(=O)N[C@@H](CCC(=O)O)C(=O)NC(C)(C)C(=O)N[C@H](C(=O)N[C@@H](C)C(=O)N[C@@H](CC(N)=O)C(=O)N[C@H](C(N)=O)[C@@H](C)O)[C@@H](C)CC)C(C)C)C(=O)O)C(=O)O [Peptide 49] (H-HSQGS[αMeF]TSDVSK[Dip]LDSK([PEG2-PEG2-γGlu-γGlu-Stearoyl])AAQD[αMeF]VE[Aib]IANT-NH2; N-terminus assumed) |  | 69.2% |  | −1.2% | 16.8% | 193.3% | 154.3%
3 |  |  |  |  |  |  |  | 0% | 0% | 72.4 pM | 1.0 | 139 pM | CC[C@H](C)[C@H](NC(=O)[C@H](Cc1c[nH]c2ccccc12)NC(=O)[C@H](CCCCNC(=O)COCCOCCNC(=O)COCCOCCNC(=O)CC[C@H](NC(=O)CCCCCCCCCCCCCCCCCCC(=O)O)C(=O)O)NC(=O)[C@@H](NC(=O)[C@H](Cc1ccccc1)NC(=O)[C@H](CC(=O)O)NC(=O)[C@H](CCC(N)=O)NC(=O)[C@H](C)NC(=O)[C@H](C)NC(=O)[C@H](CCCNC(=N)N)NC(=O)[C@H](CO)NC(=O)[C@H](CC(=O)O)NC(=O)[C@H](CC(C)C)NC(=O)[C@](C)(Cc1ccccc1)NC(=O)[C@H](CCCCN)NC(=O)[C@H](CO)NC(=O)[C@@H](NC(=O)[C@H](CC(=O)O)NC(=O)[C@H](CO)NC(=O)[C@@H](NC(=O)[C@](C)(Cc1ccccc1)NC(=O)[C@H](CO)NC(=O)CNC(=O)[C@H](Cc1c[nH]cn1)NC(=O)C(C)(C)NC(=O)[C@@H](N)Cc1c[nH]cn1)[C@@H](C)O)C(C)C)C(C)C)C(=O)N[C@@H](C)C(=O)N[C@@H](CC(N)=O)C(=O)N[C@H](C(N)=O)[C@@H](C)O [Peptide 367] (H-H[Aib]HGS[αMeF]TSDVSK[αMeF]LDSRAAQDFVK([AEEA-AEEA-γGlu-C20 diacid])WIANT-NH2; N-terminus assumed) |  |  |  |  |  |  | 
